Experimental data: PubChem BioAssay AID2060616 (Molecular Pharmacology Branch, DTP, NCI, 2025)
Values belong to the compound of their own block, whether it stands above or below them.

Tested on: 377384-186-R-J1-PDC complex spheroid viability
Experiment: Anticancer human tumor 377384-186-R-J1-PDC patient-derived pancreatic carcinoma cell line growth inhibition [CLK]
Settings: for IC50: curve of first compound; for viability, T/C: stronger effect = lower value
In short: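 Patient-derived tumor cells grown as complex spheroids with HUVEC endothelial cells and mesenchymal stem cells, treated with drug combinations. Concentrations descend in half-log steps from near clinical Cmax, or from 10 microM if Cmax unknown.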

[1] = second compound 0.0316 µM, first compound 0.0316 µM
[2] = second compound 0.0316 µM, first compound 0.1 µM
[3] = second compound 0.0316 µM, first compound 0.316 µM
[4] = second compound 0.0316 µM, first compound 1 µM
[5] = second compound 0.0316 µM, first compound 3.16 µM
[6] = second compound 0.0316 µM, first compound 10 µM
[7] = second compound 0.1 µM, first compound 0.0316 µM
[8] = second compound 0.1 µM, first compound 0.1 µM
[9] = second compound 0.1 µM, first compound 0.316 µM
[10] = second compound 0.1 µM, first compound 1 µM
[11] = second compound 0.1 µM, first compound 3.16 µM
[12] = second compound 0.1 µM, first compound 10 µM
[13] = second compound 0.316 µM, first compound 0.0316 µM
[14] = second compound 0.316 µM, first compound 0.1 µM
[15] = second compound 0.316 µM, first compound 0.316 µM
[16] = second compound 0.316 µM, first compound 1 µM
[17] = second compound 0.316 µM, first compound 3.16 µM
[18] = second compound 0.316 µM, first compound 10 µM
[19] = second compound 1 µM, first compound 0.0316 µM
[20] = second compound 1 µM, first compound 0.1 µM
[21] = second compound 1 µM, first compound 0.316 µM
[22] = second compound 1 µM, first compound 1 µM
[23] = second compound 1 µM, first compound 3.16 µM
[24] = second compound 1 µM, first compound 10 µM
[25] = second compound 3.16 µM, first compound 0.0316 µM
[26] = second compound 3.16 µM, first compound 0.1 µM
[27] = second compound 3.16 µM, first compound 0.316 µM
[28] = second compound 3.16 µM, first compound 1 µM
[29] = second compound 3.16 µM, first compound 3.16 µM
[30] = second compound 3.16 µM, first compound 10 µM
[31] = second compound 10 µM, first compound 0.0316 µM
[32] = second compound 10 µM, first compound 0.1 µM
[33] = second compound 10 µM, first compound 0.316 µM
[34] = second compound 10 µM, first compound 1 µM
[35] = second compound 10 µM, first compound 3.16 µM
[36] = second compound 10 µM, first compound 10 µM
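Also: spheroids exposed to agents for 7 days before reading.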
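For viability, T/C in this document: luminescence signal used as a stand-in for viable cells.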

IC50 (second compound 0.0316 µM): < 31.6 nM
IC50 (second compound 0.1 µM): < 31.6 nM
IC50 (second compound 0.316 µM): < 31.6 nM
IC50 (second compound 1 µM): < 31.6 nM
IC50 (second compound 3.16 µM): < 31.6 nM
IC50 (second compound 10 µM): < 31.6 nM
Structure (SMILES): Nc1ccn(C2OC(CO)C(O)C2(F)F)c(=O)n1 (stereo unspecified) + CNC(=O)c1ccc(Nc2nc(OC3CCCC3)c3c(-c4ccc5nc(C)oc5c4)c[nH]c3n2)c(OC)c1
viability, T/C [1]: 8.18%
viability, T/C [2]: 3.36%
viability, T/C [3]: 3.13%
viability, T/C [4]: 2.68%
viability, T/C [5]: 2.2%
viability, T/C [6]: 1.72%
viability, T/C [7]: 6.64%
viability, T/C [8]: 4.51%
viability, T/C [9]: 2.85%
viability, T/C [10]: 2.62%
viability, T/C [11]: 2.66%
viability, T/C [12]: 2.22%
viability, T/C [13]: 7.09%
viability, T/C [14]: 3.96%
viability, T/C [15]: 3.31%
viability, T/C [16]: 2.62%
viability, T/C [17]: 2.25%
viability, T/C [18]: 1.52%
viability, T/C [19]: 8.74%
viability, T/C [20]: 4.85%
viability, T/C [21]: 4.17%
viability, T/C [22]: 3.63%
viability, T/C [23]: 1.95%
viability, T/C [24]: 1.24%
viability, T/C [25]: 8.43%
viability, T/C [26]: 6.12%
viability, T/C [27]: 4.34%
viability, T/C [28]: 3.36%
viability, T/C [29]: 3.71%
viability, T/C [30]: 1.58%
viability, T/C [31]: 9.23%
viability, T/C [32]: 7.84%
viability, T/C [33]: 5.26%
viability, T/C [34]: 3.45%
viability, T/C [35]: 2.47%
viability, T/C [36]: 1.32%

IC50 (second compound 0.0316 µM): 6380 nM
IC50 (second compound 0.1 µM): 991 nM
IC50 (second compound 0.316 µM): < 31.6 nM
IC50 (second compound 1 µM): < 31.6 nM
IC50 (second compound 3.16 µM): < 31.6 nM
IC50 (second compound 10 µM): < 31.6 nM
Structure (SMILES): O=C(c1cc(Cc2n[nH]c(=O)c3ccccc23)ccc1F)N1CCN(C(=O)C2CC2)CC1 + CNC(=O)c1ccc(Nc2nc(OC3CCCC3)c3c(-c4ccc5nc(C)oc5c4)c[nH]c3n2)c(OC)c1
viability, T/C [1]: 83.7%
viability, T/C [2]: 84.7%
viability, T/C [3]: 78.9%
viability, T/C [4]: 75.9%
viability, T/C [5]: 64.9%
viability, T/C [6]: 40.3%
viability, T/C [7]: 52.1%
viability, T/C [8]: 50.2%
viability, T/C [9]: 57%
viability, T/C [10]: 49%
viability, T/C [11]: 38.3%
viability, T/C [12]: 29.7%
viability, T/C [13]: 22.3%
viability, T/C [14]: 17.4%
viability, T/C [15]: 20.7%
viability, T/C [16]: 17.8%
viability, T/C [17]: 15.3%
viability, T/C [18]: 17.5%
viability, T/C [19]: 23.3%
viability, T/C [20]: 18.6%
viability, T/C [21]: 17.9%
viability, T/C [22]: 21.3%
viability, T/C [23]: 20%
viability, T/C [24]: 17.4%
viability, T/C [25]: 19.6%
viability, T/C [26]: 21.1%
viability, T/C [27]: 22.2%
viability, T/C [28]: 19.4%
viability, T/C [29]: 22%
viability, T/C [30]: 18.4%
viability, T/C [31]: 18.7%
viability, T/C [32]: 19.8%
viability, T/C [33]: 21.8%
viability, T/C [34]: 19.8%
viability, T/C [35]: 18.9%
viability, T/C [36]: 15.2%

IC50 (second compound 0.0316 µM): 3650 nM
IC50 (second compound 0.1 µM): 46.4 nM
IC50 (second compound 0.316 µM): < 31.6 nM
IC50 (second compound 1 µM): < 31.6 nM
IC50 (second compound 3.16 µM): < 31.6 nM
IC50 (second compound 10 µM): < 31.6 nM
Structure (SMILES): O=c1[nH]cc(F)c(=O)[nH]1 + CNC(=O)c1ccc(Nc2nc(OC3CCCC3)c3c(-c4ccc5nc(C)oc5c4)c[nH]c3n2)c(OC)c1
viability, T/C [1]: 98%
viability, T/C [2]: 98.3%
viability, T/C [3]: 96%
viability, T/C [4]: 82.1%
viability, T/C [5]: 50.3%
viability, T/C [6]: 46.3%
viability, T/C [7]: 49.6%
viability, T/C [8]: 50.9%
viability, T/C [9]: 45.4%
viability, T/C [10]: 54.5%
viability, T/C [11]: 41.6%
viability, T/C [12]: 43.5%
viability, T/C [13]: 20.4%
viability, T/C [14]: 20.3%
viability, T/C [15]: 16.7%
viability, T/C [16]: 16.4%
viability, T/C [17]: 14.5%
viability, T/C [18]: 14%
viability, T/C [19]: 22%
viability, T/C [20]: 17.8%
viability, T/C [21]: 19.2%
viability, T/C [22]: 14.9%
viability, T/C [23]: 13.2%
viability, T/C [24]: 10.7%
viability, T/C [25]: 20.2%
viability, T/C [26]: 19.7%
viability, T/C [27]: 17.6%
viability, T/C [28]: 16.7%
viability, T/C [29]: 12.6%
viability, T/C [30]: 9.93%
viability, T/C [31]: 16.8%
viability, T/C [32]: 17.2%
viability, T/C [33]: 17.1%
viability, T/C [34]: 16%
viability, T/C [35]: 10.8%
viability, T/C [36]: 11.4%
